Assay results reported in patent US20070117743A1, “New antitumoral compounds” (priority 2003, published 2007).
Where two headings read alike, the source gives them in different places.

Experiments:
Assay type in all cases: cell-based, human
IGROV-1 = assay: SRB colorimetric assay of cell growth and viability, IGROV-1; conditions: 48 hours exposure
LoVo-Dox = assay: SRB colorimetric assay of cell growth and viability, LoVo-Dox; conditions: 48 hours exposure
Outline: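 Cells in RPMI 1640 with 10% FBS were seeded at 5×10^3 per well and left 18 hours drug-free before compounds (10 to 10^−8 μg/mL in DMSO:EtOH:PBS 0.5:0.5:99) were added for 48 hours. TCA-fixed cells were stained with SRB and read at 490 nm; triplicate wells gave GI, TGI and LC.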

SK-OV-3 = assay: SRB colorimetric assay of cell growth and viability, SK-OV-3; conditions: 48 hours exposure
Source text: (§1) The finality of this assay is to interrupt the growth of a “in vitro” tumor cell culture by means a continued exhibition of the cells to the sample to be testing.
(§2) A colorimetric type of assay, using sulforhodamine B (SRB) reaction has been adapted for a quantitative measurement of cell growth and viability [following the technique described by Philip Skehan, et al. (1990), New colorimetric cytotoxicity assay for anticancer drug screening, J. Natl. Cancer Inst., 82:1107-1112].
(§3) This form of the assay employs 96 well cell culture microplates of 9 mm diameter (Faircloth, 1988; Mosmann, 1983). Most of the cell lines are obtained from American Type Culture Collection (ATCC) derived from different human cancer types.
(§4) Cells are maintained in RPMI 1640 10% FBS, supplemented with 0.1 g/l penicillin and 0.1 g/l streptomycin sulfate and then incubated at 37° C., 5% CO2 and 98% humidity. For the experiments, cells were harvested from subconfluent cultures using trypsin and resuspended in fresh medium before plating.
(§5) Cells are seeded in 96 well microtiter plates, at 5×10^3 cells per well in aliquots of 195 μL medium, and they are allowed to attach to the plate surface by growing in drug free medium for 18 hours. Afterward, samples are added in aliquots of 5 μL in a ranging from 10 to 10^−8 μg/mL, dissolved in DMSO:EtOH:PBS (0.5:0.5:99). After 48 hours exposure, the antitumor effect are measured by the SRB methodology: cells are fixed by adding 50 μL of cold 50% (wt/vol) trichloroacetic acid (TCA) and incubating for 60 minutes at 4° C. Plates are washed with deionized water and dried. One hundred μL of SRB solution (0.4% wt/vol in 1% acetic acid) is added to each microtiter well and incubated for 10 minutes at room temperature. Unbound SRB is removed by washing with 1% acetic acid. Plates are air dried and bound stain is solubilized with Tris buffer. Optical densities are read on a automated spectrophotometric plate reader at a single wavelength of 490 nm.
(§6) The values for mean+/− SD of data from triplicate wells are calculated. Some parameters for cellular responses can be calculated: GI=growth inhibition, TGI=total growth inhibition (cytostatic effect) and LC=cell killing (cytotoxic effect).

PANC-1 = assay: SRB colorimetric assay of cell growth and viability, PANC-1; conditions: 48 hours exposure
A-549 = assay: SRB colorimetric assay of cell growth and viability, A-549; conditions: 48 hours exposure
SK-BR-3 = assay: SRB colorimetric assay of cell growth and viability, SK-BR-3; conditions: 48 hours exposure
LNCaP = assay: SRB colorimetric assay of cell growth and viability, LNCaP; conditions: 48 hours exposure
HMEC-1 = assay: SRB colorimetric assay of cell growth and viability, HMEC-1; conditions: 48 hours exposure
Source text: as §1, §2, §3, §4
as §5, with “Unbound SRB is removed by washing with 1% acetic acid. Plates are air dried and bound stain is solubilized with Tris buffer.” left out
as §6

[1] = as above; conditions: human, HMEC-1 cells; 48 hours exposure; read-out: LC50 H-MEC-1
Source text: as §1, §2, §3, §4
as §5, with “Unbound SRB is removed by washing with 1% acetic acid. Plates are air dried and bound stain is solubilized with Tris buffer.” left out
as §6

K-562 = assay: SRB colorimetric assay of cell growth and viability, K-562; conditions: 48 hours exposure
HT-29 = assay: SRB colorimetric assay of cell growth and viability, HT-29; conditions: 48 hours exposure
IGROV-ET = assay: SRB colorimetric assay of cell growth and viability, IGROV-ET; conditions: 48 hours exposure
SK-MEL-28 = assay: SRB colorimetric assay of cell growth and viability, SK-MEL-28; conditions: 48 hours exposure
DU-145 = assay: SRB colorimetric assay of cell growth and viability, DU-145; conditions: 48 hours exposure
LoVo = assay: SRB colorimetric assay of cell growth and viability, LoVo; conditions: 48 hours exposure
MB-231 = assay: SRB colorimetric assay of cell growth and viability, MB-231; conditions: MB-231 cells, 48 hours exposure
Source text: as §1, §2, §3, §4, §5, §6

C/C=C1\NC(=O)[C@H](Cc2ccccc2)NC(=O)[C@@H](C(C)C)NC(=O)[C@@H]([C@@H](C)CC)NC(=O)[C@H](NC(=O)[C@H](NC(=O)[C@H](CCCCN)NC(=O)[C@H]2CCCN2C(=O)[C@H](NC(=O)[C@@H](NC(=O)[C@@H](NC(=O)[C@H](NC(=O)CCCC(C)C)C(C)C)[C@@H](C)O)C(C)C)C(C)C)[C@@H](C)CC)[C@@H](C)OC(=O)[C@H](C(C)C)NC1=O [Compound 5, [Lys^8]-KF]
GI50 (IGROV-1): 0.183 µM
LC50 (concentration causing 50% net cell killing) (IGROV-1): 1.23 µM
TGI IGROV (IGROV-1): 3.71E−07 Molar
GI50 (LoVo-Dox): 0.162 µM
TGI LOVO-DOX (LoVo-Dox): 2.98E−07 Molar
CC50 (LoVo-Dox; read-out: LC50 LOVO-DOX): 0.552 µM
TGI SKOV-3 (SK-OV-3): 4.08E−07 Molar
GI50 (SK-OV-3; read-out: GI50 SKOV-3): 0.196 µM
CC50 (SK-OV-3; read-out: LC50 SKOV-3): 1.49 µM
GI50 (PANC-1): 1.14 µM
TGI PANC-1 (PANC-1): 2.37E−06 Molar
CC50 (PANC-1; read-out: LC50 PANC-1): 4.92 µM
TGI A-549 (A-549): 2.75E−07 Molar
GI50 (A-549; read-out: GI50 A-549): 0.129 µM
CC50 (A-549; read-out: LC50 A-549): 0.582 µM
GI50 (SK-BR-3): 0.169 µM
LC50 (SK-BR-3): 0.554 µM
TGI SK-BR-3 (SK-BR-3): 3.06E−07 Molar
TGI LN-caP (LNCaP): 2.61E−08 Molar
GI50 (LNCaP; read-out: GI50 LN-caP): 0.0142 µM
CC50 (LNCaP; read-out: LC50 LN-caP): 0.0479 µM
TGI H-MEC-1 (HMEC-1): 2.63E−08 Molar
GI50 (HMEC-1; read-out: GI50 H-MEC-1): 0.0156 µM
CC50 at 48 h [1]: 0.0446 µM
GI50 (K-562): 0.771 µM
TGI K-562 (K-562): 1.65E−06 Molar
CC50 (K-562; read-out: LC50 K-562): 3.55 µM
TGI HT-29 (HT-29): 2.81E−07 Molar
GI50 (HT-29; read-out: GI50 HT-29): 0.158 µM
CC50 (HT-29; read-out: LC50 HT-29): 0.498 µM
GI50 (IGROV-ET): 0.24 µM
TGI IGROV-ET (IGROV-ET): 4.88E−07 Molar
CC50 (IGROV-ET; read-out: LC50 IGROV-ET): 2.83 µM
GI50 (SK-MEL-28): 0.811 µM
TGI MEL-28 (SK-MEL-28): 1.87E−06 Molar
CC50 (SK-MEL-28; read-out: LC50 MEL-28): 4.3 µM
GI50 (DU-145): 0.0181 µM
LC50 (concentration causing 50% net cell kill) (DU-145): 0.0569 µM
TGI DU-145 (DU-145): 3.20E−08 Molar
GI50 (LoVo): 0.155 µM
TGI LOVO (LoVo): 2.71E−07 Molar
CC50 (LoVo; read-out: LC50 LOVO): 0.478 µM

C/C=C1\NC(=O)[C@H](Cc2ccccc2)NC(=O)[C@@H](C(C)C)NC(=O)[C@@H]([C@@H](C)CC)NC(=O)[C@H](NC(=O)[C@H](NC(=O)[C@H](CCCN)NC(=O)[C@H]2CCCN2C(=O)[C@H](NC(=O)[C@@H](NC(=O)[C@@H](NC(=O)[C@H](NC(=O)[C@]23CCC(C)(C)C[C@H]2C2=CC[C@@H]4[C@@]5(C)C[C@@H](O)[C@H](O)C(C)(C)[C@@H]5CC[C@@]4(C)[C@]2(C)CC3)C(C)C)[C@@H](C)O)C(C)C)C(C)C)[C@@H](C)CC)[C@@H](C)OC(=O)[C@H](C(C)C)NC1=O [Compound 101, [AM^14]-KF]
TGI (total growth inhibition) (MB-231): 5.49E−06 Molar
TGI (total growth inhibition) (A-549; A-549 cells, SRB): 5.49E−06 Molar
GI50 (A-549; read-out: GI50 (growth inhibition at 50%), A-549 cells, SRB): 5.49 µM
CC50 (A-549; read-out: LC50 (lethal concentration at 50%), A-549 cells, SRB): 5.49 µM
TGI (total growth inhibition) (HT-29; HT-29 cells, SRB): 4.60E−06 Molar
GI50 (HT-29; read-out: GI50 (growth inhibition at 50%), HT-29 cells, SRB): 4.45 µM
CC50 (HT-29; read-out: LC50 (lethal concentration at 50%), HT-29 cells, SRB): 4.86 µM
